According to patent EP4656642A1, “ESTROGEN RECEPTOR PROTEOLYSIS TARGETING CHIMERA COMPOUND AND USE THEREOF” (GAN & LEE PHARM CO., LTD, priority 2023, dated 2024):

How the values were obtained:
Assay type in all cases: cell-based
ERα [1] = biological target: T1, ERα (Homo sapiens, UniProt P03372); assay: Degradation of ERα in T-47D cells (immunoblotting, 4 h); parameters: host or cells: T-47D
T1 sequence (P03372 1-595): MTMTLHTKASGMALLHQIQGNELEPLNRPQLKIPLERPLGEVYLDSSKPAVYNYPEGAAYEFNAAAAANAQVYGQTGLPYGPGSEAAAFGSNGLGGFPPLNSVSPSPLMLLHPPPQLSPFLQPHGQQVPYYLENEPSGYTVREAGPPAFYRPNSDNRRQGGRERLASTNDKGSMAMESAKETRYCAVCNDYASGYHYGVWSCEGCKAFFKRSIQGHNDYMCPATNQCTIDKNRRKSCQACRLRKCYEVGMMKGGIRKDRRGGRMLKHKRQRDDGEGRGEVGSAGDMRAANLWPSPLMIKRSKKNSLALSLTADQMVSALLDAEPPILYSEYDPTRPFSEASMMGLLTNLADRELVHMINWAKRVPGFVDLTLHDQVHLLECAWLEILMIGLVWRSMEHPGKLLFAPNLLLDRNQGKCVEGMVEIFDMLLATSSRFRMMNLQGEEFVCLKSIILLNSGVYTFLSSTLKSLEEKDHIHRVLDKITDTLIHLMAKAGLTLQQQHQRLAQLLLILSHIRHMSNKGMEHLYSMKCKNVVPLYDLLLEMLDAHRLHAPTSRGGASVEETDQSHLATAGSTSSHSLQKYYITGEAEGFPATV
Outline: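 T-47D cells were treated with compound (final 0.15-1000 nM, DMSO) for 4 h at 37°C, 5% CO2. Cells were lysed in RIPA buffer with protease inhibitor, and ERα protein in the cleared lysate was measured by immunoblotting.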

ERα [2] = biological target: T1, ERα; assay: Degradation of ERα in MCF-7 cells (immunoblotting, 4 h)
Outline: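 MCF-7 cells treated 4 h at 37°C with compounds at 0.15-1000nM final. ERα in lysates measured by immunoblot, with band grayscale normalized to an internal reference protein. Degradation rate calculated against DMSO-treated control.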

MCF-7 cells = assay: Inhibition of cell proliferation of MCF-7 cells (CCK-8, 9 days); settings: treated for 9 days, CCK-8 kit (Table 6)
Outline: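 MCF-7 cells seeded at 800 cells/well in DMEM with 10% FBS, exposed to a range of compound concentrations for 9 days at 37°C, 5% CO2. Viability read by CCK-8; IC50 derived for proliferation inhibition.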

T-47D cells = assay: Inhibition of cell proliferation in T-47D cells (CCK-8, 6 days); settings: 6 days of treatment, Table 3
Outline: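 T-47D cells at 3,000 cells/well in RPMI 1640 with 10% FBS were exposed to a concentration series of PROTAC compounds for 6 days at 37 °C, 5% CO2. Viability was read by CCK-8, and IC50 values were derived for proliferation inhibition.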

| Degradation rate (%) of ERα in T-47D cells (ERα [1]; 1nM compound) [%] | Degradation rate (%) of ERα in T-47D cells (ERα [1]; 10nM compound) [%] | Degradation rate (%) of ERα in MCF-7 cells (ERα [2]; 1nM compound) [%] | Degradation rate (%) of ERα in MCF-7 cells (ERα [2]; 10nM compound) [%] | IC50 (MCF-7 cells) [nM] | IC50 (T-47D cells) [nM] | Compound |
| --- | --- | --- | --- | --- | --- | --- |
| 20 | 57 | 14 | 43 | 103 | 10.4 | O=C1CCC(N2Cc3c(ccc4c3OCC43CCN(C4CCC5(CC4)CCN(c4ccc(C6=C(c7ccc(Cl)cc7Cl)CCCc7cc(C(=O)O)ccc76)cc4)CC5)CC3)C2=O)C(=O)N1 (stereo not drawn) [F11] |
| 33 | 71 | 8 | 46 | 25400 | 4.21 | O=C1CCC(N2Cc3c(ccc4c3OCC43CCN(C4CC5(C4)CC4(CCN(c6ccc([C@@H]7c8ccc(O)cc8CC[C@@H]7c7ccccc7)cc6)CC4)C5)CC3)C2=O)C(=O)N1 (stereo partly drawn) [G6] |
| 34 | 63 | 45 | 57 | 8.6 | 25.1 | C[C@@H]1Cc2c(ccc3[nH]ncc23)C(c2c(F)cc(N3CC4(CCC(N5CCC6(CC5)COc5c6ccc6c5CN(C5CCC(=O)NC5=O)C6=O)CC4)C3)cc2F)N1CC(F)F (stereo partly drawn) [G21] |
| -43 | -56 | -20 | -37 | 2410 | 200 | O=C1CCC(N2Cc3cc4c(cc3C2=O)OC2(CC4)CN(CC3CCN(c4ccc([C@@H]5c6ccc(O)cc6CC[C@@H]5c5ccccc5)cc4)CC3)C2)C(=O)N1 (stereo partly drawn) [H3] |
| 18 | 12 | -3 | -12 | 2260 | 22.4 | O=C1CCC(N2Cc3ccc4c(c3C2=O)OCC2(CCN(CC3CCN(c5ccc([C@@H]6c7ccc(O)cc7CC[C@@H]6c6ccccc6)cc5)CC3)CC2)C4)C(=O)N1 (stereo partly drawn) [H5] |
| -11 | -15 | 12 | -2 | 330 | 10.4 | O=C1CCC(N2Cc3ccc4c(c3C2=O)OC2(CC4)CCN(CC3CCN(c4ccc([C@@H]5c6ccc(O)cc6CC[C@@H]5c5ccccc5)cc4)CC3)CC2)C(=O)N1 (stereo partly drawn) [H7] |
| -20 | -37 | -23 | -48 | 27200 | 31.9 | O=C1CCC(N2Cc3c(ccc4c3OCC43CCN(CC4CCN(c5ccc([C@@H]6c7ccc(O)cc7CC[C@@H]6c6ccccc6)cc5)CC4)CC3)C2=O)C(=O)N1 (stereo partly drawn) [H8] |
| -3 | -31 | -39 | -54 | 5020 | 594 | O=C1CCC(N2Cc3c(ccc4c3OCC43CCN(C4CCN(C(=O)c5ccc([C@@H]6c7ccc(O)cc7CC[C@@H]6c6ccccc6)cc5)CC4)CC3)C2=O)C(=O)N1 (stereo partly drawn) [H9] |
| -16 | 8 | -39 | -41 | 24100 | 124 | O=C1CCC(N2Cc3cc4c(cc3C2=O)OC2(CC4)CN(C3CCN(C(=O)c4ccc([C@@H]5c6ccc(O)cc6CC[C@@H]5c5ccccc5)cc4)CC3)C2)C(=O)N1 (stereo partly drawn) [H11] |
| -1 | 11 | 4 | 28 | 35.5 | 15.9 | O=C1CCC(N2Cc3c(ccc4c3OCC43CCN(C4CCC(Oc5ccc([C@@H]6c7ccc(O)cc7CC[C@@H]6c6ccccc6)cc5)CC4)CC3)C2=O)C(=O)N1 (stereo partly drawn) [H12] |
| 48 | 69 | 9 | 37 | 9770 | 5.7 | O=C1CCC(N2Cc3c(ccc4c3OCC43CCN(C(=O)CC4CCN(c5ccc([C@@H]6c7ccc(O)cc7CC[C@@H]6c6ccccc6)cc5)CC4)CC3)C2=O)C(=O)N1 (stereo partly drawn) [H16] |
| 61 | 68 | 47 | 54 | 62.7 | 1.02 | O=C1CCC(N2Cc3c(ccc4c3OCC43CCN(C(=O)C4CCC(N5CCN(c6ccc([C@@H]7c8ccc(O)cc8CC[C@@H]7c7ccccc7)cc6)CC5)CC4)CC3)C2=O)C(=O)N1 (stereo partly drawn) [H17] |
| 69 | 57 | 18 | 58 | 7380 | 1.55 | O=C1CCC(N2Cc3c(ccc4c3OCC43CCN(CC(=O)N4CCN(c5ccc([C@@H]6c7ccc(O)cc7CC[C@@H]6c6ccccc6)cc5)CC4)CC3)C2=O)C(=O)N1 (stereo partly drawn) [H18] |
| 39 | 55 | 27 | 21 | 151 | 1.8 | O=C1CCC(N2Cc3c(ccc4c3OCC43CCN(CC(=O)N4CCC5(CCN(c6ccc([C@@H]7c8ccc(O)cc8CC[C@@H]7c7ccccc7)cc6)C5)C4)CC3)C2=O)C(=O)N1 (stereo partly drawn) [H19] |
| 13 | -14 | -18 | -14 | 1320 | 1.22 | O=C1CCC(N2Cc3c(ccc4c3OCC43CCN(CCN4CCN(c5ccc([C@@H]6c7ccc(O)cc7CC[C@@H]6c6ccccc6)cc5)CC4)CC3)C2=O)C(=O)N1 (stereo partly drawn) [H20] |
| 35 | 65 | 18 | 37 | 163 | 1.02 | O=C1CCC(N2Cc3c(ccc4c3OCC43CCN(C(=O)CN4CC[C@]5(CCN(c6ccc([C@@H]7c8ccc(O)cc8CC[C@@H]7c7ccccc7)cc6)C5)C4)CC3)C2=O)C(=O)N1 (stereo partly drawn) [H21] |
| 56 | 73 | 32 | 64 | 3.5 | 1.57 | O=C1CCC(N2Cc3c(ccc4c3OCC43CCN(C(=O)C4CCN(C5CCN(c6ccc([C@@H]7c8ccc(O)cc8CC[C@@H]7c7ccccc7)cc6)CC5)CC4)CC3)C2=O)C(=O)N1 (stereo partly drawn) [H22] |
| 50 | 68 | 44 | 51 | 9.19 | 1.58 | O=C1CCC(N2Cc3c(ccc4c3OCC43CCN(CC(=O)N4CC[C@]5(CCN(c6ccc([C@@H]7c8ccc(O)cc8CC[C@@H]7c7ccccc7)cc6)C5)C4)CC3)C2=O)C(=O)N1 (stereo partly drawn) [H23] |
| 23 | 48 | -9 | -50 | 1720 | 6.02 | O=C1CCC(N2Cc3cc4c(cc3C2=O)OC2(CC4)CN(C3CC4(C3)CC3(CCN(c5ccc([C@@H]6c7ccc(O)cc7CC[C@@H]6c6ccccc6)cc5)CC3)C4)C2)C(=O)N1 (stereo partly drawn) [H25] |
| 36 | 78 | 11 | 46 | 800 | 4.65 | O=C1CCC(N2C(=O)c3ccc4c(c3C2=O)OCC42CCN(C3CCN(C(=O)C4CCN(c5ccc([C@@H]6c7ccc(O)cc7CC[C@@H]6c6ccccc6)cc5)CC4)CC3)CC2)C(=O)N1 (stereo partly drawn) [H27] |
| 62 | 83 | 36 | 65 | 8.41 | 1.01 | C[C@@H]1C[C@H](N2CCC3(CC2)COc2c3ccc3c2CN(C2CCC(=O)NC2=O)C3=O)CCN1C(=O)C1CCN(c2ccc([C@@H]3c4ccc(O)cc4CC[C@@H]3c3ccccc3)cc2)CC1 (stereo partly drawn) [H28] |
